PubChem BioAssay AID1645871

Conditions: pampa; pH 5.0; 30.0 min; 50.0 µM

Row | Compound | Papp [×10⁻⁶ cm/s]
1 | COc1ccc(C)cc1NS(=O)(=O)c1ccc(-c2cnc(C3CC3)o2)cc1 | 883
2 | C[C@H]1CCC[C@H](O)CCC/C=C/c2cc(O)cc(O)c2C(=O)O1 | 795
3 | O=C(c1ccc2ncccc2c1)N1CCc2c(nc3cc[nH]n3c2=O)C1 | 5.6
4 | COc1cc(C(=O)NC2CCCc3c2[nH]c2c(Cl)cccc32)cc(OC)c1OC (stereo not given) | 384
5 | CCOC(=O)C1CCN(c2ncc(-c3ccc4c(c3)OCCCO4)s2)CC1 | > 1000
6 | O=C(NCc1ccc(S(=O)(=O)c2cccc(C(F)(F)F)c2)cc1)c1cnc2[nH]ncc2c1 | 362
7 | Cc1ccc2c(c1)N(S(=O)(=O)c1cc(-c3onc(C)c3C)ccc1C)CCO2 | 226
8 | CCOc1ccc(N2CC(c3nc(-c4cc(OC)c(OC)c(OC)c4)no3)CC2=O)cc1 (stereo not given) | > 1000
9 | N#Cc1cccc(NC(=O)c2sc3nc4c(cc3c2N)N2CCC4CC2)c1 | 285
10 | O=C1CCc2cc(S(=O)(=O)Nc3ccc(F)c(Cl)c3)ccc2N1 | 663
11 | COc1ccc(-n2nc(C3CCN([S+](=O)([O-])c4cccc(C(F)(F)F)c4)CC3)[nH]c2=O)cc1 | 434
12 | CC(C)c1ccc(OCc2nc3c(n2Cc2ccccc2)C(=O)N(CC2CCOCC2)CCN3)cc1 | 643
13 | c1cc(-c2cc(-c3ccncc3)c3cncn3c2)c2[nH]ncc2c1 | 20.3
14 | COc1ccccc1-c1[nH]nc2ncc(-c3ccc(C)cc3)nc12 | 1.92
15 | Fc1ccccc1-c1nc(NCc2ccc(-c3cccnc3)cc2)c2ccccc2n1 | > 1000
16 | COc1cc2ncnc(Oc3cccc(NC(=O)Nc4cc(C(C)(C)C(F)(F)F)on4)c3)c2cc1OC | 137
17 | CCOc1cc(-c2nccc3cc(OC)c(OC)cc23)cc(OCC)c1OCC | > 1000
18 | COc1cccc2c1CCCC2CCCN1CCN(C2CCCCC2)CC1 (stereo not given) | 777
19 | O=C(O)c1ccc(-c2c[nH]c3ncc(-c4ccccc4)cc23)cc1C1CCCC1 | 400
20 | Cc1c(-c2cccc(NC(=O)c3ccc(F)c(F)c3)c2)nc2ncccn12 | 710
21 | COc1ccc(CN2CCNc3cc(Nc4ccccc4)ncc3C2)cn1 | 2.38
22 | Nc1c(C(=O)Nc2ccc(Cl)cc2)sc2nc3c(cc12)N1CCC3CC1 | 140

Row | Compound | Papp [×10⁻⁶ cm/s]
23 | COc1ccc(OC)c(CNc2ncnc3onc(C)c23)c1 | 250
24 | COc1ccc(CN2CCNc3cc(Nc4ccccc4)ncc3C2)cc1 | 119
25 | CCc1ccccc1Nc1ncnc2c1cnn2-c1ccc(Cl)cc1 | 100
26 | CN(C)[C@@H]1CCN(c2cccc(Nc3nn4c(=O)c5ccccc5nc4s3)c2)C1 | 24.9
27 | COc1cccc(C(=O)Nc2nc(-c3nnn(-c4ccccc4C(F)(F)F)c3C)ns2)c1 | 834
28 | COc1cc([C@@H](CC(=O)O)c2ccc(C)c(CN3C[C@@H](C)Oc4ccccc4S3(=O)=O)c2)cc2nnn(C)c12 | 898
29 | COc1ccc(-c2cc(C)nc3c(-c4ccc(OC)c(OC)c4)c(C)nn23)cc1 | > 1000
30 | CCC(CC)c1cc([C@H]2CN3CC[C@H]2C[C@@H]3CNC(C)=O)nc(-c2ccncc2)n1 | 14.9
31 | Cc1c(C(=O)NN2CCCCC2)nn(-c2ccc(Cl)cc2Cl)c1-c1ccc(Cl)cc1 | > 1000
32 | COc1ccc(-n2nc(C3CCCN(C(=O)Cc4ccc(F)cc4)C3)[nH]c2=O)cc1 (stereo not given) | 524
33 | COC(=O)C1=C(C)NC(C)=C(C(=O)O[C@@H]2CCCN(Cc3ccccc3)C2)[C@@H]1c1cccc([N+](=O)[O-])c1 | > 1000
34 | O=C1Nc2cc(Cl)ccc2Nc2cscc21 | 63.3
35 | Nc1c(-c2ccccc2)cc[nH]c1=O | 76.8
36 | Cc1ccc(S(=O)(=O)N2CCN(C(=O)c3cc4c(s3)CCC4)CC2)cc1 | > 1000
37 | COC(=O)Nc1nc2ccc(SC(C)C)cc2[nH]1 | 510
38 | COc1ccccc1Nc1cnc2ccc(-c3ccc(OC)c(OC)c3)nn12 | 621
39 | O=C(Nc1cccc(OC(F)(F)F)c1)c1cc(-c2ccc[nH]2)n[nH]1 | 103
40 | COc1ccc(-n2c(C)c(C(C)=O)c3cc(OC(=O)COc4ccccc4)ccc32)cc1 | > 1000
41 | Nc1c(S(=O)(=O)c2cccs2)c2nc3ccccc3nc2n1Cc1ccccc1 | > 1000
42 | Oc1ccc(-c2nc(C3CC3)nc3c2CCN(Cc2ccc(F)cc2)CC3)cc1 | 421
43 | COc1ccc(Nc2cnc3ccc(-c4ccc(OC)c(OC)c4)nn23)cc1 | 821
44 | Cn1c(=O)c2c(-c3ccc(Br)cc3)n(CCc3ccccc3)cc2n(C)c1=O | 591

Further lines, results first:

Row | Papp [×10⁻⁶ cm/s] | Compound
45 | 257 | COC(=O)c1cc2occc2n1Cc1nc(-c2ccc(C)cc2)oc1C
46 | 75.6 | O=C(Nc1cccc(F)c1)c1cc(-c2ccc[nH]2)n[nH]1
47 | 638 | O=C(NCC1CCN(Cc2cccc(Cl)c2)CC1)Nc1ccc(F)c(Cl)c1
48 | 166 | O=C(Nc1ccc(F)cc1F)c1cc(-c2ccc[nH]2)n[nH]1
49 | 807 | COc1ccc2c(c1)CN(C(=O)CCN1CCC(Cc3ccccc3)CC1)CCS2
50 | 91.5 | Cc1noc([C@@H]2CN(C(=O)c3nn(C)c4ccccc34)C[C@H]2CO)n1
51 | 1.84 | CCCc1oc2ccc(NS(=O)(=O)c3ccc(OC)cc3)cc2c1C(=O)OCC
52 | 828 | CC1CCN(S(=O)(=O)c2ccc3c(ccc(=O)n3CC(=O)NCc3ccc(Cl)cc3)c2)CC1
53 | 90.2 | CCc1cccc(NC(=O)c2cc(-c3ccc[nH]3)n[nH]2)c1
54 | 711 | CCc1nnc(NC(=O)c2nc(S(=O)(=O)Cc3ccc(C)cc3)ncc2Cl)s1
55 | 278 | CCOc1ccc(S(=O)(=O)NCc2cccnc2)cc1NC(=O)c1ccccc1F
56 | 19.5 | CC/C=C\C/C=C\C/C=C\C/C=C\C/C=C\C/C=C\CCC(=O)NCCO
57 | 931 | COc1ccc(Cn2c(C(=O)O)c(CNCc3cccc(OC)c3)c3ccc(C)cc32)cc1
58 | > 1000 | Cc1c(C)n(Cc2ccccc2)c2ccc(C(=O)OCCN(C)C)cc12
59 | 273 | CCCCOc1ccc(C2c3c(oc4ccc(C)cc4c3=O)C(=O)N2CCCN(C)C)cc1OCC (stereo not given)
60 | 739 | COc1ccc2[nH]c(C[C@@H]3C[C@@H](C(C)C)[C@H](CNCc4ccccc4O)C=C3C)nc2n1

Row | Papp [×10⁻⁶ cm/s] | Compound
61 | 114 | CCOc1ccc(-c2cn3c(n2)sc2cc(C(=O)NCCCN(CC)CC)ccc23)cc1
62 | > 1000 | CN(C)C(=O)c1nc(-c2ccc(Cl)cc2Cl)c2cnccn12
63 | > 1000 | CCCCOc1ccc(C(=O)N2CCC(c3n[nH]c(=O)n3-c3ccc(C)cc3)CC2)cc1
64 | 11.5 | O=C(NCCc1ccccn1)C1CC(=O)N(c2n[nH]c3cc(Br)ccc23)C1 (stereo not given)
65 | 178 | Cn1c(CN2CCCCC2)nc2cc(NC(=O)c3cccc(Br)c3)ccc21
66 | 82.9 | CCN(CC)CCCC(C)Nc1cc(/C=C/c2ccccc2Cl)nc2cc(Cl)ccc12 (stereo not given)
67 | 6.63 | CCN1CCCC1CNC(=O)c1cc(S(=O)(=O)CC)c(N)cc1OC (stereo not given)
68 | > 1000 | CCN(CC)C(=O)c1coc(COc2ccc3c(c2)C(c2cccc(F)c2)N(C(=O)C(C)C)CC3)n1 (stereo not given)
69 | 867 | CCCCOc1ccc(CNC(=O)c2cc3n(n2)CCCN(Cc2ccc(C)cc2)C3=O)cc1
70 | 159 | COc1ccc(CNC(=O)CCCn2nc(C)c3c(C)n(-c4ccc(C)cc4)nc3c2=O)cc1OC
71 | 46.7 | Cc1cccc(-c2noc([C@@H]3Cc4nc[nH]c4CN3C(=O)CC(C)(C)CC(=O)O)n2)c1
72 | 637 | CCOc1ccc(OCC)c(NC(=O)C(NS(=O)(=O)c2ccc(Br)s2)c2ccccc2)c1 (stereo not given)
73 | 5.75 | CCC(=O)NC(c1ccc(OC)cc1)c1cc(Cl)c2cccnc2c1O (stereo not given)
74 | 4.16 | CC(NCc1ccc2c(c1)nc(NC(=O)c1ccc(-c3cn[nH]c3)s1)n2CC(C)(C)O)C(C)(C)C (stereo not given)
75 | 209 | Cc1ccccc1NC(=O)Nc1cccs1
